Changes are numbered by the printed parent chain.
Columns and labels:
Assay type in all cases: cell-based
WT AR = target: T1, WT AR (Homo sapiens, UniProt P10275); assay: Antagonism in WT AR, AR transactivation reporter gene assay in COS-1 cells, competitive setting with 50 nM testosterone; details: 18 h
T1 construct: expressed in transfected cells; host or cells: COS-1
T1 sequence (P10275 1-920): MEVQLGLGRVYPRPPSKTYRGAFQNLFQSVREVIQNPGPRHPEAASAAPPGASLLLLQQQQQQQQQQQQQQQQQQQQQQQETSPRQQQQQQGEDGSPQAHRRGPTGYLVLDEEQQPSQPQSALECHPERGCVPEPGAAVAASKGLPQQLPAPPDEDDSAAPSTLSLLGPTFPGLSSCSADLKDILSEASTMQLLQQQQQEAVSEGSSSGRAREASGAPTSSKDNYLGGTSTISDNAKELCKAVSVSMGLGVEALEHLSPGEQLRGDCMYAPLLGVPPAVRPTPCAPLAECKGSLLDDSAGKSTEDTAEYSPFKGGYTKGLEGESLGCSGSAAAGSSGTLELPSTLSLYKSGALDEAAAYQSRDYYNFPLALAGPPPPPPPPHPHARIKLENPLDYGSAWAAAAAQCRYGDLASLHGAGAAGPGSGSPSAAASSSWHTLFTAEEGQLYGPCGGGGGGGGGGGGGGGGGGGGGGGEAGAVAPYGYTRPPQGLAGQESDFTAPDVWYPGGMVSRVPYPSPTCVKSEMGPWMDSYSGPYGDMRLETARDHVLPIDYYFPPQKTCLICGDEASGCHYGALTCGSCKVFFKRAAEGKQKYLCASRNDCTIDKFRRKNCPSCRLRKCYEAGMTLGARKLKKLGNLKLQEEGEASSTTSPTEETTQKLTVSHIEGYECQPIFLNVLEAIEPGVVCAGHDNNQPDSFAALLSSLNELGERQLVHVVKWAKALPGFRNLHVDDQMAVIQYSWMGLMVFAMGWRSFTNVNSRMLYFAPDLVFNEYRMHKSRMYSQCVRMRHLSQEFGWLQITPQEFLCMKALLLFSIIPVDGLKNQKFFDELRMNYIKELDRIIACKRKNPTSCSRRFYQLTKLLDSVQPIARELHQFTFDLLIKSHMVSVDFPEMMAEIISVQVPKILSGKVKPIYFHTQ
Description: After 18 h, reporter gene activities (LUC and beta-galactosidase) were determined according to standard methods. The data are expressed as relative LUC activity (luciferase light units divided by beta-galactosidase A420nm to control for transfection efficiency) of a given compound in relation to the activity of a reference test item (=100%).
Antagonism in WT AR of compounds of the present invention was measured in AR transctivation assay in COS-1 cells in competitive setting using testosterone as a reference agonist as described above. […] Relative LUC activity representing AR-dependent transcription obtained by exposure to testosterone alone was set to 100%.

W741L AR = target: T2, W741L AR (Homo sapiens, UniProt P10275, W742L); assay: Agonism in W741L mutant AR, AR transactivation assay in COS-1 cells, test compounds alone; details: 10 microM, compound alone
T2 construct: expressed in transfected cells; host or cells: COS-1
T2 sequence (P10275 1-920 W742L): T1 sequence (P10275 1-920) with W742L
Description: COS-1 (American Type Culture Collection) were cultured in DMEM supplemented with 10% FBS, penicillin (6.25 U/ml) and streptomycin (6.25 μg/ml) and seeded onto 48-well plates (50 000 cells/well) one day before transfection. Transfection media containing 2.5% charcoal-stripped FBS in DMEM was changed on cells 4 h prior to transfection. Cells were transfected with 50 ng of reporter gene plasmid (pPB-286/+32-LUC; PB, probasin promoter), 5 ng of AR expression plasmid (pSG5-hAR), and 5 ng of pCMVβ (an internal, beta-galactosidase control for transfection efficiency and cell growth) using TranslT-LT1 reagent (Mirus Bio Corporation) according to the manufacturer's instructions. […] After 18 h, reporter gene activities (LUC and beta-galactosidase) were determined according to standard methods. The data are expressed as relative LUC activity (luciferase light units divided by beta-galactosidase A420nm to control for transfection efficiency) of a given compound in relation to the activity of a reference test item (=100%).
Agonism in W741L AR of compounds of the present invention was measured in AR transactivation assay in COS-1 cells as described above except that AR expression vector harboring the W741L mutation was used instead of the WT AR. The transfected cells were exposed to test compounds alone.

T877A AR = target: T3, T877A AR (Homo sapiens, UniProt P10275, T878A); assay: Agonism in T877A mutant AR, AR transactivation assay in COS-1 cells, test compounds alone; details: 10 microM, compound alone
T3 construct: expressed in transfected cells; host or cells: COS-1
T3 sequence (P10275 1-920 T878A): T1 sequence (P10275 1-920) with T878A
Description: The transfected cells were exposed to test compounds alone. Testosterone was used as reference agonist, and its' relative LUC activity representing AR-dependent transcription was set to 100%.

Structure (SMILES)	Relative LUC activity (%) indicating residual androgen activity in relation to testosterone (100%) (WT AR; 1 microM compound) [%]	Relative LUC activity (%) indicating residual androgen activity in relation to testosterone (100%) (WT AR; 10 microM compound) [%]	Relative LUC activity (%) in W741L AR in relation to BIC (100%) (W741L AR) [%]	Relative LUC activity (%) in T877A AR in relation to testosterone (100%) (T877A AR) [%]
N#Cc1ccc(NC(=O)C(O)(CS(=O)(=O)Cc2ccco2)c2ccc(C(F)(F)F)cc2)cc1C(F)(F)F (stereo not drawn) [Example 3, N-[4-cyano-3-(trifluoro-methyl)phenyl]-3-[(furan-2-ylmethane)sulfonyl]-2-hydroxy-2-[4-(trifluoromethyl)phenyl]propanamide]	17	3	4	3
CCS(=O)(=O)CC(O)(C(=O)Nc1ccc(C#N)c(C(F)(F)F)c1)c1ccc(C(F)(F)F)cc1 (stereo not drawn) [Example 17, N-[4-cyano-3-(trifluoromethyl)phenyl]-3-(ethanesulfonyl)-2-[4-(trifuoromethyl)phenyl]-2-hydroxypropanamide]	18	3	–	–
N#Cc1ccc(NC(=O)C(O)(CS(=O)(=O)c2cccc(F)c2)c2ccc(F)c(F)c2)cc1C(F)(F)F (stereo not drawn) [Example 39, N-[4-cyano-3-(trifluoromethyl)phenyl]-2-(3,4-difluorophenyl)-3-[(3-fluorobenzene)sulfonyl]-2-hydroxypropanamide]	14	2	–	–
N#Cc1ccc(NC(=O)C(O)(CS(=O)(=O)Cc2ccc(Cl)cc2)c2ccc(Cl)cc2)cc1Cl (stereo not drawn) [Example 27, N-[3-chloro-4-cyanophenyl]-3-{[(4-chlorophenyl)methane]sulfonyl}-2-hydroxy-2-[4-(chloro)phenyl]propanamide]	14	1	6	1
COc1ccc(C(O)(CS(=O)(=O)c2ccc(F)c(F)c2)C(=O)Nc2ccc(C#N)c(C(F)(F)F)c2)cc1F (stereo not drawn) [Example 22, N-(4-cyano-3-(trifluoromethyl)phenyl)-3-[(3,4-difluorobenzene)sulfonyl]-2-hydroxy-2-[3-fluoro-4-(methoxy)phenyl]propanamide]	9	3	–	–
N#Cc1ccc(NC(=O)C(O)(CS(=O)(=O)c2ccc(F)c(F)c2)c2ccc(F)cc2)cc1Cl (stereo not drawn) [Example 6, N-(3-chloro-4-cyanophenyl)-3-[(3,4-difluorobenzene)sulfonyl]-2-(4-fluorophenyl)-2-hydroxypropanamide]	7	5	–	–
CCS(=O)(=O)CC(O)(C(=O)Nc1ccc(C#N)c(C(F)(F)F)c1)c1ccc(F)cc1 (stereo not drawn) [Example 1, N-[4-cyano-3-(trifluoro-methyl)phenyl]-3-(ethanesulfonyl)-2-(4-fluorophenyl)-2-hydroxypropanamide]	–	–	12	14
COc1ccc(C(O)(CS(=O)(=O)c2cccc(F)c2)C(=O)Nc2ccc(C#N)c(Cl)c2)cc1F (stereo not drawn) [Example 33, N-(3-chloro-4-cyanophenyl)-2-(3-fluoro-4-methoxyphenyl)-3-[(3-fluorobenzene)sulfonyl]-2-hydroxypropanamide]	5	1	–	–
CC(C)CCS(=O)(=O)CC(O)(C(=O)Nc1ccc(C#N)c(C(F)(F)F)c1)c1ccc(F)cc1 (stereo not drawn) [Example 2, N-[4-cyano-3-(trifluoromethyl)phenyl]-2-(4-fluorophenyl)-2-hydroxy-3-[(3-methylbutane)-sulfonyl]propanamide]	12	3	–	–
CCS(=O)(=O)CC(O)(C(=O)Nc1ccc(C#N)c(Cl)c1)c1ccc(F)c(F)c1 (stereo not drawn) [Example 5, N-(3-chloro-4-cyanophenyl)-2-(3,4-difluorophenyl)-3-(ethanesulfonyl)-2-hydroxypropanamide]	–	–	18	9

From patent US8816119B2, “Arylamide derivatives having antiandrogenic properties” (Medeia Therapeutics Ltd, priority 2010, dated 2014)
